Results: the NIST ThermoML archive (doi:10.1016/j.jct.2016.07.005)

Experiment: xn = mol fraction of the nth substance listed
Conditions: 100 kPa, Liquid; for viscosity: Concentric cylinders viscometry; for mass density: Vibrating tube method

CN1CCC[C@H]1c1cccnc1 [(-)-3-(N-methylpyrrolidino)pyridine] + CC(O)CO
Conditions | mass density [kg/m3] | viscosity [mPa·s]
293.15 K, x1 = 0.1 | 1035.04 | 59.35
293.15 K, x1 = 0.2009 | 1033.1 | 53.52
293.15 K, x1 = 0.3 | 1030.49 | 44.85
293.15 K, x1 = 0.4016 | 1027.64 | 35.02
293.15 K, x1 = 0.5 | 1024.73 | 26.04
293.15 K, x1 = 0.6005 | 1021.54 | 18.44
293.15 K, x1 = 0.7 | 1018.73 | 12.89
293.15 K, x1 = 0.7983 | 1015.98 | 9.269
293.15 K, x1 = 0.9 | 1012.96 | 6.875
293.15 K, x1 = 1 | 1010.23 | 4.694
298.15 K, x1 = 0.1 | 1031.1 | 43.28
298.15 K, x1 = 0.2009 | 1029.06 | 38.88
298.15 K, x1 = 0.3 | 1026.32 | 32.72
298.15 K, x1 = 0.4016 | 1023.44 | 25.84
298.15 K, x1 = 0.5 | 1020.54 | 19.6
298.15 K, x1 = 0.6005 | 1017.36 | 14.25
298.15 K, x1 = 0.7 | 1014.59 | 10.27
298.15 K, x1 = 0.7983 | 1011.83 | 7.576
298.15 K, x1 = 0.9 | 1008.87 | 5.707
298.15 K, x1 = 1 | 1006.16 | 4.048
303.15 K, x1 = 0.1 | 1027.18 | 32.21
303.15 K, x1 = 0.2009 | 1025 | 28.85
303.15 K, x1 = 0.3 | 1022.19 | 24.37
303.15 K, x1 = 0.4016 | 1019.27 | 19.44
303.15 K, x1 = 0.5 | 1016.35 | 14.99
303.15 K, x1 = 0.6005 | 1013.17 | 11.16
303.15 K, x1 = 0.7 | 1010.42 | 8.284
303.15 K, x1 = 0.7983 | 1007.68 | 6.286
303.15 K, x1 = 0.9 | 1004.77 | 4.834
303.15 K, x1 = 1 | 1002.1 | 3.518
308.15 K, x1 = 0.1 | 1023.28 | 24.46
308.15 K, x1 = 0.2009 | 1020.91 | 21.87
308.15 K, x1 = 0.3 | 1018.08 | 18.56
308.15 K, x1 = 0.4016 | 1015.09 | 14.98
308.15 K, x1 = 0.5 | 1012.14 | 11.73
308.15 K, x1 = 0.6005 | 1008.98 | 8.935
308.15 K, x1 = 0.7 | 1006.13 | 6.791
308.15 K, x1 = 0.7983 | 1003.54 | 5.264
308.15 K, x1 = 0.9 | 1000.64 | 4.12
308.15 K, x1 = 1 | 998.055 | 3.088
313.15 K, x1 = 0.1 | 1019.3 | 18.79
313.15 K, x1 = 0.2009 | 1016.8 | 16.79
313.15 K, x1 = 0.3 | 1013.89 | 14.33
313.15 K, x1 = 0.4016 | 1010.88 | 11.69
313.15 K, x1 = 0.5 | 1007.92 | 9.302
313.15 K, x1 = 0.6005 | 1004.79 | 7.224
313.15 K, x1 = 0.7 | 1002.03 | 5.605
313.15 K, x1 = 0.7983 | 999.39 | 4.425
313.15 K, x1 = 0.9 | 996.55 | 3.532
313.15 K, x1 = 1 | 994.014 | 2.758
318.15 K, x1 = 0.1 | 1015.29 | 14.91
318.15 K, x1 = 0.2009 | 1012.66 | 13.34
318.15 K, x1 = 0.3 | 1009.7 | 11.45
318.15 K, x1 = 0.4016 | 1006.65 | 9.438
318.15 K, x1 = 0.5 | 1003.69 | 7.62
318.15 K, x1 = 0.6005 | 1000.58 | 6.031
318.15 K, x1 = 0.7 | 997.85 | 4.779
318.15 K, x1 = 0.7983 | 995.25 | 3.839
318.15 K, x1 = 0.9 | 992.46 | 3.094
318.15 K, x1 = 1 | 989.984 | 2.411
323.15 K, x1 = 0.1 | 1011.25 | 12.03
323.15 K, x1 = 0.2009 | 1008.51 | 10.78
323.15 K, x1 = 0.3 | 1005.48 | 9.306
323.15 K, x1 = 0.4016 | 1002.41 | 7.746
323.15 K, x1 = 0.5 | 999.45 | 6.339
323.15 K, x1 = 0.6005 | 996.37 | 5.104
323.15 K, x1 = 0.7 | 993.67 | 4.124
323.15 K, x1 = 0.7983 | 991.1 | 3.375
323.15 K, x1 = 0.9 | 988.38 | 2.765
323.15 K, x1 = 1 | 985.962 | 2.195
